Measured values as given in EP0200132A2, “(Aminoalkylthio)hydroxydibenzoxepins, a process for their preparation and their use as medicaments” (HOECHST-ROUSSEL PHARMACEUTICALS INCORPORATED, priority 1985, dated 1986).

How the values were obtained:
[1] = system: tetrabenazine-induced ptosis; assay: inhibition of tetrabenazine-induced depression (ptosis) in mice; assay type: in vivo
[2] = system: phenyl-p-quinone writhing; assay: phenyl-p-quinone writhing assay in mice; assay type: in vivo; details: Mus musculus, sc
Source text: The (aminoalkylthio)hydroxydibenzoxepins of the present invention are also useful as analgetic agents due to their ability to alleviate pain in mammals. […] Exptl.

CN(C)CCC=C1c2ccccc2CCc2ccccc21 [Amitriptyline, reference compound]
EDso (tetrabenazine-induced ptosis) ([1]; intraperitoneally, standard antidepressant, unit not given): 1.5

CNCCSC1=Cc2cc(O)ccc2Oc2ccc(F)cc21 [Example 2, 2-Fluoro-8-hydroxy-11-[β-(methylamino)ethylthio)-dibenz-[b,f]oxepin]
ED50 ([1]; Mus musculus, ip, intraperitoneal, read-out: intraperitoneal dose effecting a 50% inhibition of tetrabenazine-induced ptosis (ED50)): 3.3 mg/kg | inhibition at 20 mg/kg ([2]; mice, subcutaneous dose 20 mg/kg of body weight): 69%

CNCCSC1=Cc2ccc(O)cc2Oc2ccc(F)cc21 [Example 3, 2-Fluoro-7-hydroxy-11-[β-(methylamino)ethylthio]-dibenz-[b,f]oxepin]
inhibition at 20 mg/kg ([1]; Mus musculus, ip, intraperitoneal dose 20 mg/kg of body weight): 89% | inhibition at 10 mg/kg ([2]; mice, subcutaneous dose 10 mg/kg of body weight): 42%

CCC(=O)O[C@](Cc1ccccc1)(c1ccccc1)[C@H](C)CN(C)C [Propoxyphene, reference compound]
ED50 ([2]; read-out: dose giving calculated 50% inhibition of writhing): 3.9 mg/kg
